Measurements taken from patent publication US5104869A, “Renin inhibitors” (American Cyanamid Company, priority 1990, dated 1992).

Molecular target: T1, human kidney renin (Homo sapiens, UniProt P00797)
T1 construct: Human renin was prepared from human kidney; from tissue; host or cells: human kidney
T1 sequence (P00797 67-406): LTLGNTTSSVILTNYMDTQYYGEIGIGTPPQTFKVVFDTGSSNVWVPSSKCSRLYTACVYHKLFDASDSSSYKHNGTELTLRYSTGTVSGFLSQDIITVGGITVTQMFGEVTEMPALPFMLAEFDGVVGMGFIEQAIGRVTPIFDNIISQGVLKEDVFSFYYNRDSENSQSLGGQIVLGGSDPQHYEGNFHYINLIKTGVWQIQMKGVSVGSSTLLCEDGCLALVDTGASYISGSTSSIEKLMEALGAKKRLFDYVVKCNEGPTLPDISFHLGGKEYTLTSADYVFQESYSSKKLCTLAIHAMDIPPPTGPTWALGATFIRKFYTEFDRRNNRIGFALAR
Test: Radioimmunoassay Screen for Renin Inhibitors (in vitro angiotensin I generation, quantitated by radioimmunoassay)
Type: biochemical
Conditions: purified human plasma angiotensinogen, pH 6.0, one hour at 37° C., read-out: Renin Inhibiton IC50
Protocol: The in vitro method for the screening of anti-renin compounds involves, first, angiotensin I generation, and second, the quantitation of the angiotensin I produced by radioimmunoassay.
The incubation medium consisted of 20 μl of purified human plasma angiotensinogen (1); 10 μl of human kidney renin (2); 5 μl of phenylmethylsulfonyl fluoride; 10 μl of disodium EDTA (10 mM); 10 μl of antirenin compound (5×10^-3, 5×10^-4, 5×10^-5) in dimethylformamide, or ethanol and a suitable amount of maleate buffer (77 mM, pH 6.0) to make a final volume of 500 μl. The reaction mixture was incubated for one hour at 37° C. and the enzymatic reaction was stopped by placing the tube in ice-cold water. The angiotensin I generated during the incubation was measured by a radioimmunoassay plasma renin activity kit (Clinical Assays, Inc.).
The incubation medium consisted of either 100 μl aliquots of the above reaction mixture or a standard amount of angiotensin I; 1000 μl of phosphate buffer (100 mM, pH 7.6) and 100 μl of (^125 I)angiotensinin a gamma-coat, tube. After three hours of incubation at room temperature, the tubes were decanted, and the radioactivity of each tube was determined in a gamma counter. Duplicate determinations were performed for each incubation. The results were expressed in ng of angiotensin I generated per ml of generation medium per hour of incubation (ng/AI/ml/hr).
(1) The human plasma angiotensinogen derived from the blood of a person receiving oral contraceptive pills was purified by chromatography on a pepstatinaminohexyl-agarose column.
(2) Human renin was prepared from human kidney.

First: CC(C)C[C@H](NC(=O)[C@@H](CC(=O)OC(C)(C)C)Cc1ccccc1)C(=O)N[C@@H](CC(C)C)[C@@H](O)c1nccs1
Second: COC(CNC(=O)C[C@@H](Cc1cccc2ccccc12)C(=O)N[C@@H](CC(C)C)C(=O)N[C@@H](CC(C)C)[C@@H](O)c1nccs1)OC
The IC50 of the first is 16-fold higher: 6500 nM for the first, 410 nM for the second. The second is the more potent here.

Going from CC(C)C[C@H](NC(=O)[C@@H](CC(=O)NCCN1CCCCC1)Cc1cccc2ccccc12)C(=O)N[C@@H](CC(C)C)[C@@H](O)c1nccs1 to CC(C)C[C@H](NC(=O)[C@@H](CC(=O)N1CCOCC1)Cc1cccc2ccccc12)C(=O)N[C@@H](CC1CCCCC1)[C@@H](O)c1ccco1, the IC50 falls from 650 nM to 8.8 nM (74-fold). The second is the more potent here.
